Source: PubChem BioAssay AID179 (DTP/NCI, 2004)
Calls of active or inactive are those of the source.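 The calls were made as follows: active = compounds giving half or more protection of infected cells from virus-caused growth loss, again on retest; inactive = the rest.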

System: CEM cells HIV-1 protection, formazan growth assay
Assay: NCI AIDS Antiviral Assay
Conditions: for IC50: measured here: growth of uninfected CEM cells
Procedure, shortened: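 Category rules: moderately active means at least 50% protection on retest, and confirmed active means 100% protection reproducibly. The underlying data came from a formazan growth assay in HIV-1-infected CEM cells.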

SMILES	EC50	IC50	outcome
CC(NC1=NCCO1)c1cccc([N+](=O)[O-])c1 (stereo not drawn)	> 200 µM	> 200 µM	
CC[CH2][Sn]([CH2]CC)([O]C(=O)c1cccnc1SC)[O][Sn]([CH2]CC)([CH2]CC)[O]C(=O)c1cccnc1SC	> 24.5 µM	5.62 µM	
C[C@H](NC(=O)c1ccccc1SC(=O)NCCCCl)C(N)=O	3.63 µM	44.7 µM	
Nc1ccccc1/C(O)=C1/CCOC1=O	> 7.08 µM	> 7.08 µM	
CCCCNC1=C(C(=O)OCC)/C(=N/NC(=O)c2ccccc2O)CO1	> 83.2 µM	13.2 µM	
COc1ccc(C(=O)c2ccc(OC)c(S(=O)(=O)N(C)C=O)c2)cc1S(=O)(=O)N(C)C=O	> 38.9 µM	> 38.9 µM	
COC(=S)SSC(=S)NCCN(CCNC(=S)SSC(=S)OC)C(=S)SSC(=S)OC	> 257 µM	209 µM	
NC(=O)C(=CNc1nc(-c2cccc([N+](=O)[O-])c2)cs1)C(N)=O	> 200 µM	> 100 µM	
C=CC1(C)CCC2=C(CCC3C(C)(C(=O)OC)CCCC23C)C1=O (stereo not drawn)	> 200 µM	28.8 µM	
O=C1NC2C(O)CCCCC2C12CCCCC2 (stereo not drawn)			inactive
CN/N=C(\C(=O)Nc1ccc([N+](=O)[O-])cc1[N+](=O)[O-])C1NC(=O)NC1=O (stereo not drawn)	> 66.1 µM	> 66.1 µM	
O=C(O)c1cc2cccc(S(=O)(=O)O)c2cc1O	> 200 µM	> 200 µM	
CCCN(CCCCC(NC(C)=O)C(=O)NCc1ccccc1)C(=O)N(CCCl)N=O (stereo not drawn)	> 79.4 µM	> 79.4 µM	
COc1ccc(C[C@H]2COC(=O)[C@@H]2Cc2ccc(Br)cc2)cc1OC	> 200 µM	24.5 µM	
NC(=O)C(c1ccccc1)N1CCOCC1 (stereo not drawn)	> 200 µM	1.02 µM	
COc1ccc2c(c1)CCC1C3(CCCC21C)OCCO3 (stereo not drawn)	> 100 µM	20.4 µM	
OCC1OC2c3ccccc3COC2C1OCc1ccccc1 (stereo not drawn)			inactive
CN(C)CCCn1c2c(c3ccccc31)CCCCCC2	> 200 µM	31.6 µM	
O=C(Nc1sccc1S(=O)(=O)c1ccccc1)c1cccnc1	> 200 µM	4.47 µM	
CCCCS(=N)(=O)CC[C@H](N)C(=O)O (stereo partly drawn)	> 562 µM	214 µM	
O=c1[nH]nc(NCCc2ccccc2)c2nnn(Cc3ccccc3)c12	> 200 µM	> 200 µM	
O=c1oc2ccccc2n1Cc1ccc(Cl)cc1	> 200 µM	79.4 µM	
N#CCCC(C=O)(CCC#N)CCC#N	> 200 µM	> 200 µM	

SMILES	EC50	IC50	outcome
O=Nc1c(O)c2ccccc2[nH]c1=O	> 200 µM	45.7 µM	
CN1C=C/C(=C/[N+](=O)[O-])N(C)C1=O	> 200 µM	> 200 µM	
O=c1[nH]c2ccc(CC(=S)N3CCOCC3)cc2o1	> 200 µM	> 200 µM	
O=c1[nH]c(=O)n(C2CC(O)C(CO)O2)cc1OC/C=C/Cc1ccccc1 (stereo not drawn)	> 200 µM	> 200 µM	
CN1C=C(C(N)=O)Cc2ccsc21	> 1290 µM	66.1 µM	
O=C(Nc1ccc(/C=C\c2ccc([N+](=O)[O-])cc2S(=O)(=O)O)c(S(=O)(=O)O)c1)OCc1ccccc1	> 200 µM	> 200 µM	
N#Cc1cc2cccn2c2c1cnn2-c1ccccc1	> 200 µM	43.7 µM	
O=C(O)C1CCCN1C(=O)c1ccccn1 (stereo not drawn)	> 200 µM	> 200 µM	
COC(=O)CC(CNC(=O)OCc1ccccc1)OCc1ccc(OC)cc1 (stereo not drawn)	> 200 µM	> 200 µM	
CC(=O)CC(C)=O.CC(=O)CC(C)=O.[O]=[V]			inactive
Nc1ccc([As](=O)(O)O)cc1C(=O)O	> 200 µM	> 200 µM	
O=C1NC(O)c2cc(Cl)cc(Cl)c2O1 (stereo not drawn)			inactive
O=C1c2ccccc2C(=O)c2c1ccc1c2N=C(c2ccc(Br)cc2)CC(c2cccc3ccccc23)N1 (stereo not drawn)	> 64.6 µM	> 64.6 µM	
NC(N)=Nc1ccc(N)cc1			inactive
Cc1ccc(NC(=O)c2cc3ccccc3c(N=Nc3cc(S(=O)(=O)O)ccc3O)c2O)c(C)c1	0.832 µM	4.27 µM	
CC(C)(C)C1CCC2c3c([nH]c4ccccc34)C3C(=O)N(c4cccc([N+](=O)[O-])c4)C(=O)C3C2C1 (stereo not drawn)	> 200 µM	4.79 µM	
CCNC(=O)c1cc(NC(=O)c2ccc(C(=O)Nc3cc(C(=O)NCC)cc(C4=NCCN4)c3)cc2)cc(C2=NCCN2)c1	> 200 µM	87.1 µM	
CCOC(=O)c1ccc(/C(C)=N/NC(N)=S)cc1			inactive
O=C(O)c1ccc(CS(=O)(=O)c2ccc([N+](=O)[O-])cc2)c([N+](=O)[O-])c1	> 676 µM	324 µM	
CC(C)C1COC(c2cccc(C3=N[C@@H](C(C)C)CO3)n2)=N1 (stereo partly drawn)	> 24 µM	> 24 µM	
Cc1occc1C(=S)Nc1ccc(Cl)c(C(=O)OCC2CC2)c1	0.0186 µM	53.7 µM	
O=c1nc2occc2cn1C1CC(O)C(CO)O1 (stereo not drawn)	> 513 µM	> 513 µM	
CCN(CC)C(=O)c1c2nc3c(C(=O)N(CC)CC)ccc(C)c3oc-2c(C)c(=O)c1N	> 200 µM	83.2 µM	

SMILES	EC50	IC50	outcome
Cc1cc2c(O)c(c1)CN(Cc1ccccc1)Cc1cc(C)cc(c1O)CN(Cc1ccccc1)Cc1cc(C)cc(c1O)CN(Cc1ccccc1)C2	> 50.1 µM	> 50.1 µM	
COc1cc2cc(C(=O)N3CC(CCl)c4ccc(NO)cc43)[nH]c2c(OC)c1OC (stereo not drawn)	> 2 µM	1.82 µM	
COc1cc2c3c(c1)nc(C)n3C(=O)C(C)S2 (stereo not drawn)	> 200 µM	50.1 µM	
O=c1[nH]c2ccc(C(F)(F)F)cc2nc1-c1ccccc1	> 200 µM	> 200 µM	
O=C1NC(=S)NC(=O)C1=Cc1ccc(Cl)c(Cl)c1	> 87.1 µM	> 87.1 µM	
O=C(O)C1=CC(=C(c2ccc(O)c(C(=O)O)c2)c2ccc(O)c(C(=O)O)c2)C=C(Cc2ccc(O)c(C(=O)O)c2)C1=O	> 1200 µM	195 µM	
N=C1N(c2ccccc2)C(=S)C(=Nc2ccccc2)N1c1ccccc1	> 200 µM	3.89 µM	
Nc1ccc(C(=O)Nn2c(-c3ccccc3)nc3ccccc3c2=O)cc1	> 200 µM	> 200 µM	
CC(O)C1OC(O)C2OC(C)(C)OC12 (stereo not drawn)	> 200 µM	> 200 µM	
Cc1ccc(SC[C@@]2(C(F)F)NC(=O)NC2=O)cc1	> 200 µM	> 200 µM	
O=C(/C=C\c1cccc2ccccc12)c1cccc2ccccc12	> 8.91 µM	> 8.91 µM	
CC(=O)C1C(=O)C(=O)N(c2ccc([N+](=O)[O-])cc2)C1=O (stereo not drawn)	> 200 µM	> 200 µM	
O=c1[nH]cnc2c1nnn2CCCCCCCCCCCCn1nnc2c(=O)[nH]cnc21	> 200 µM	24 µM	
C[C@]12CC(C=O)C(=O)C(O)=C1CC[C@@H]1C2CC[C@@]2(C)C1CC[C@]2(C)O (stereo partly drawn)			inactive
N#CC(Nc1cccc(C(F)(F)F)c1)c1ccccc1C(F)(F)F (stereo not drawn)	> 39.8 µM	> 39.8 µM	
C[N+]12CN3CN(C1)CP(=O)(C3)C2	> 794 µM	115 µM	
CCC1(c2ccc(OC)c(OC)c2)CCN2C(=O)C(O)CC21 (stereo not drawn)	> 200 µM	> 200 µM	
N#CCCN(c1ccc(C=Nc2ccccc2Cl)cc1)S(=O)(=O)c1ccccc1	> 427 µM	331 µM	
Cc1cn([C@H]2C[C@@H]3[C@@H](COC(C(Cl)Cl)N3O)O2)c(=O)[nH]c1=O (stereo partly drawn)	> 200 µM	> 200 µM	
COC(=O)C1=C2c3ccccc3NC(=O)N2NC1C(=O)OC (stereo not drawn)	> 550 µM	501 µM	
CCCCc1c2c(nc3c1CC/C(=C\c1ccc([N+](=O)[O-])cc1)C3=O)CCCC2	> 6.92 µM	1.32 µM	
COc1ccc(N2C=Nn3c(nc4sc(C)c(C)c4c3=O)C2)cc1			inactive
N#Cc1cccc(NC(=O)c2ccc(C(=O)O)c(C(=O)c3ccc(C(=O)O)c(C(=O)Nc4cccc(C#N)c4)c3)c2)c1	> 170 µM	> 170 µM	

SMILES	EC50	IC50	outcome
CCOC(=O)C(=O)Nc1cc(Cl)c(Cl)cc1Cl	> 63.1 µM	> 63.1 µM	
COc1ccc(C(=O)CCC2(C)OCCO2)cc1OC	> 646 µM	479 µM	
O=C(O)c1c[nH]cc1C(=O)O			inactive
CC12CCC(=O)N1c1cc(Cl)ccc1N2 (stereo not drawn)	> 115 µM	> 115 µM	
N=C(N)N=Nc1cc(O)c(NN=C(N)N)cc1O	> 200 µM	110 µM	
CCCCCCCCCCCCCCCCc1c(C(=O)OC)nc(NC#N)[nH]c1=O	> 14.5 µM	> 14.5 µM	
CON(C)c1nc(N(C)OC)nc(N(C)OC)n1	> 200 µM	> 200 µM	
CC(=O)/C(=C\n1c(=S)[nH]c2ccccc21)C(=O)Nc1ccccc1	> 200 µM	> 200 µM	
CN(c1ccccc1)S(=O)(=O)c1ccccc1[N+](=O)[O-]	> 200 µM	64.6 µM	
N#CC(C(=O)C(=O)Nc1ccc(Cl)c(Cl)c1)c1ccc(Cl)cc1 (stereo not drawn)	> 135 µM	107 µM	
S=C(S)N1CCOCC1	> 200 µM	0.724 µM	
CCOC(=O)c1sc2c(c1OC(=O)c1ccccc1)c(=O)n(-c1ccccc1)c(=S)n2-c1ccccc1	> 200 µM	132 µM	
COc1ccc2nc3ccccc3c(NCCCN(CCCl)CCCl)c2c1			inactive
CC1(C)CCc2ccc(OCCC#N)cc2O1			inactive
Cn1cc(NC(=O)c2cc(NC(=O)[C@H]3CCC(N)=N3)c[nH]2)cc1C(=O)NCCC(=N)N			active
O=C(c1ccccc1)N1CN(C(=O)c2ccccc2)CN(C(=O)c2ccccc2)C1	> 200 µM	30.2 µM	
CC1=C(C)C(=O)C(C2=C(C3=CC(=O)C(C)=C(C)C3=O)C(=O)c3ccccc3C2=O)=CC1=O	> 200 µM	5.62 µM	
CC(=O)OCC(OC(C)=O)C(OC(C)=O)C1OC(Oc2ccccc2)C(OC(C)=O)C1OC(C)=O (stereo not drawn)	> 200 µM	> 200 µM	
COC(=O)[C@@H]1C[C@@H](O)CN1C(=O)c1ccc([N+](=O)[O-])cc1[N+](=O)[O-]	> 200 µM	129 µM	
CC(=O)Nc1ccc(S(=O)c2ccc(NC(C)=O)cc2)cc1	> 81.3 µM	> 81.3 µM	
O=C1CC2C(=O)C1C(C(=O)O)C2C(=O)O (stereo not drawn)	> 1170 µM	> 1170 µM	
